Test results: patent US20120101110A1, “Diaza-spiro[5.5]undecanes” (priority 2010, published 2012)

How the values were obtained:
human orexin 2 receptors [1] = biological target: T1, human orexin 2 receptors (Homo sapiens, UniProt O43614); assay: Calcium accumulation in cells (FLIPR), hOx2R; type: cell-based; conditions: cells expressing human orexin 2 receptor; inhibition of orexin A-induced calcium accumulation; Cheng and Prusoff correction
T1 sequence (O43614 1-444): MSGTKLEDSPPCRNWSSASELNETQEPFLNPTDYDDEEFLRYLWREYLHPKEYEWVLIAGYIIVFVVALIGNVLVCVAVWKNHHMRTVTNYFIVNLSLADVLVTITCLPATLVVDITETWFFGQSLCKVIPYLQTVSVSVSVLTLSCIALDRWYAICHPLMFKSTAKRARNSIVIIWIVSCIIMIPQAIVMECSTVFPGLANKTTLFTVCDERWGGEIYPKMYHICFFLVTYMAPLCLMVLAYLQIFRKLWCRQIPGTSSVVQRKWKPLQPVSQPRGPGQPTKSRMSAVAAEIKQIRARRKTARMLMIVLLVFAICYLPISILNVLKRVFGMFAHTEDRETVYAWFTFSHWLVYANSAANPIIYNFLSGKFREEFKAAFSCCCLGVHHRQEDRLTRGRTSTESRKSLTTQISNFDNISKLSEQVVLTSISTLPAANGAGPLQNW
Procedure: (§4) Cells expressing human orexin 1 or human orexin 2 receptors, were seeded at 8,000 cells/well in 384 well black-walled clear bottom, poly-D-lysine coated plates. After 24 h, the medium was removed and cells were washed once with phosphate buffered saline and serum-deprived overnight in assay buffer (130 mM NaCl, 5.4 mM KCl, 1.8 mM CaCl2, 0.8 mM MgSO4, 0.9 mM NaH2PO4, 25 mM glucose, 20 mM HEPES, pH 7.4) containing bovine serum albumin (1% w/v).
On the day of the experiment, the cells seeded in black plates were treated with assay buffer containing the Ca^2+sensitive fluorescent dye Fluo-4-AM (2 μM), and probenecid (0.1 mM). After 1 h plates were washed twice with, and resuspended in, assay buffer containing probenecid (0.1 mM) using a multi plate washer. […] Fluorescence measurements were then continued every 1 S for 120 S followed by every 4 S for 240 S.
The measurements were typically made in two sequences:
(§5) Compounds of formula I were tested usually in a concentration range from 10^−9 M to 10^−5 M. In the second round, performed one hour later (to allow for equilibration), Orexin A was tested either in the absence (calibration curves, Orexin A agonist controls) or in the presence of compounds of formula I to determine antagonism.

human orexin 1 receptors [2] = biological target: T2, human orexin 1 receptors (Homo sapiens, UniProt O43613); assay: Radioligand binding assay ([3H]-SB649868 competition), hOx1R; conditions: competition with about 1 nM [3H]-SB649868; CHO or HEK cell membranes expressing human orexin 1 receptor
T2 sequence (O43613 1-425): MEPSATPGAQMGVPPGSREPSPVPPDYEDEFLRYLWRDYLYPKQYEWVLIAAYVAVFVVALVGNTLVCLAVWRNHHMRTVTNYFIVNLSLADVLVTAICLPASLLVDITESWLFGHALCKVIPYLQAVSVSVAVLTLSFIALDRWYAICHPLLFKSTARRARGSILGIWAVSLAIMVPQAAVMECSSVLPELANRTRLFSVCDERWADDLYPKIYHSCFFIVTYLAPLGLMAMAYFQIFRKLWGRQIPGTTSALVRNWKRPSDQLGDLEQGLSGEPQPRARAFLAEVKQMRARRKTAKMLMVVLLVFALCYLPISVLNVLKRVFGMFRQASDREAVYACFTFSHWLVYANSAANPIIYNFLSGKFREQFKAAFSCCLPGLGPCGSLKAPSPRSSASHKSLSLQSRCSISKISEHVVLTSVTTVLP
Procedure: (§1) The cell pellet was either stored at −80° C. or used directly. Before the experiments, cell membranes were re-suspended in binding assay buffer (10 mM HEPES, 0.5% (w/v) bovine serum albumin, pH 7.5) by homogenisation with a Polytron homogeniser at 50 Hz for 20 s. Cell membranes were also used as made available by commercial providers.
(§2) Bound radioactivity was measured, and data were analysed with the program XLFIT or Graphpad Prism. Protein concentration was determined according to the Bradford/BioRad Protein Assay Kit.
(§3) In competition experiments, cell homogenates (150 μl) were incubated in assay buffer (10 mM HEPES, pH 7.5, 0.5% (w/v) bovine serum albumin, 5 mM MgCl2, 1 mMCaCl2, and tween 0.05%) for 1 h at room temperature with about 1 nM of the radioligand [^3H]-SB649868, 66 Ci/mmole, 50 μl), and with various concentrations of compounds of the invention (50 μl) in triplicates; non-specific binding was determined in the presence of almorexant (10 μM). Reactions were terminated by vacuum filtration, 3 washes of ice cold wash buffer (Tris-HCl pH 7.4/10 mM, with NaCl 154 mM). Competition data is expressed in Table 2 as Kd [μM].

human orexin 2 receptors [3] = biological target: T1, human orexin 2 receptors; assay: Radioligand binding assay ([3H]-SB649868 competition), hOx2R; conditions: competition with about 1 nM [3H]-SB649868; CHO or HEK cell membranes expressing human orexin 2 receptor; read-out: binding hOx2R Kd
Procedure: as §1, §2
as §3, with “μM).” for “μM). Reactions were terminated by vacuum filtration, 3 washes of ice cold wash buffer (Tris-HCl pH 7.4/10 mM, with NaCl 154 mM). Competition data is expressed in Table 2 as Kd [μM].”

human orexin 1 receptors [4] = biological target: T2, human orexin 1 receptors; assay: Calcium accumulation in cells (FLIPR), hOx1R; conditions: for inhibition at 10 µM: read-out: FLIPR hOx1R % inhibition value
Procedure: as §4
On the day of the experiment, the cells seeded in black plates were treated with assay buffer containing the Ca^2+sensitive fluorescent dye Fluo-4-AM (2 μM), and probenecid (0.1 mM). After 1 h plates were washed twice with, and resuspended in, assay buffer containing probenecid (0.1 mM) using a multi plate washer. The plates were placed into a FLIPR II (Fluorometric Imaging Plate Reader, Molecular Devices, Sunnyvale, Calif., USA) and baseline fluorescence (fluorescence light units, FLU) was measured (5 measurements, 2 S each; laser excitation 488 nm at 0.6-1 W, CCD camera exposure 0.4 s) before addition of buffer alone (basal) or containing test compounds (either compound of formula I alone, agonist alone or agonist in the presence of various concentrations of compounds of formula I). Fluorescence measurements were then continued every 1 S for 120 S followed by every 4 S for 240 S.
as §5
Inhibition data is expressed in Table 2 as Ki [μM], converted by the Cheng and Prusoff correction (Ki=IC50/1+(L/EC50)), where IC50 is the 50% inhibition value determined in concentration response inhibition curves, EC50 is the half maximal activation concentration determined for orexin A in concentration response curves and L is the concentration of orexin A used in inhibition experiments performed in with a submaximal concentration of orexin A in the presence of up to 8 increasing concentrations of compound of formula I. Inhibition data is also expressed in Table 2 as % inhibition value measured at a concentration of 10 μM of selected compounds of formula I.

| SMILES | Ki (human orexin 2 receptors [1]) | Kd (human orexin 1 receptors [2]) | Kd (human orexin 2 receptors [3]) | Ki (human orexin 1 receptors [4]) | inhibition at 10 µM (human orexin 1 receptors [4]) |
| --- | --- | --- | --- | --- | --- |
| Cc1cc(C)nc(N2CCC3(CCCN(Cc4ccccc4-c4ncco4)C3=O)CC2)n1 [Example 93, 9-(4,6-dimethylpyrimidin-2-yl)-2-(2-(oxazol-2-yl)benzyl)-2,9-diazaspiro[5.5]undecan-1-one] | 16 nM | 4130 nM | 91 nM | 1400 nM |  |
| COCc1cccc(-c2ocnc2CN2CCCC3(CCN(c4nc(C)cc(C)n4)CC3)C2=O)c1 [Example 123, 9-(4,6-dimethylpyrimidin-2-yl)-2-((5-(3-(methoxymethyl)phenyl)oxazol-4-yl)methyl)-2,9-diazaspiro[5.5]undecan-1-one] | 18 nM | 3240 nM | 71 nM | 1780 nM |  |
| Cc1cc(C)nc(N2CCC3(CCCN(Cc4cccc(-c5ncccn5)c4)C3=O)CC2)n1 [Example 31, 9-(4,6-dimethylpyrimidin-2-yl)-2-(3-(pyrimidin-2-yl)benzyl)-2,9-diazaspiro[5.5]undecan-1-one] | 92 nM | 3810 nM | 145 nM | 1610 nM |  |
| Cc1cc(C)nc(N2CCC3(CCCN(Cc4cccc(-c5ncccn5)c4)C3=O)CC2)c1 [Example 74, 9-(4,6-dimethylpyridin-2-yl)-2-(3-(pyrimidin-2-yl)benzyl)-2,9-diazaspiro[5.5]undecan-1-one] | 160 nM | > 10000 nM | 338 nM | 2150 nM |  |
| Cc1cc(C#N)cc(N2CCC3(CCCN(Cc4c[nH]c5ccccc45)C3=O)CC2)n1 [Example 78, 2-(2-((1H-indol-3-yl)methyl)-1-oxo-2,9-diazaspiro[5.5]undecan-9-yl)-6-methylisonicotinonitrile] | 3 nM | 3420 nM | 216 nM | 481 nM |  |
| Cc1cc(C)nc(N2CCC3(CCCN(Cc4ccccc4-n4nccn4)C3=O)CC2)n1 [Example 2, 2-(2-(2H-1,2,3-triazol-2-yl)benzyl)-9-(4,6-dimethylpyrimidin-2-yl)-2,9-diazaspiro[5.5]undecan-1-one] | 86 nM | > 10000 nM | 259 nM |  | 22% |
| Cc1cc(C)nc(N2CCC3(CCCN(Cc4c[nH]c5ccc(C#N)cc45)C3=O)CC2)n1 [Example 105, 3-((9-(4,6-dimethylpyrimidin-2-yl)-1-oxo-2,9-diazaspiro[5.5]undecan-2-yl)methyl)-1H-indole-5-carbonitrile] | 3.3 nM | 655 nM | 25 nM | 295 nM |  |
| Cc1cc(C)nc(N2CCC3(CCCN(Cc4cccc(-c5noc(C)n5)c4)C3=O)CC2)n1 [Example 22, 9-(4,6-dimethylpyrimidin-2-yl)-2-(3-(5-methyl-1,2,4-oxadiazol-3-yl)benzyl)-2,9-diazaspiro[5.5]undecan-1-one] | 31 nM | 1300 nM | 151 nM | 755 nM |  |
| COc1cncc(-c2nn(C)nc2CN2CCCC3(CCN(c4nc(C)cc(C)n4)CC3)C2=O)c1 [Example 121, 9-(4,6-dimethylpyrimidin-2-yl)-2-((5-(5-methoxypyridin-3-yl)-2-methyl-2H-1,2,3-triazol-4-yl)methyl)-2,9 diazaspiro[5.5]undecan-1-one] | 2 nM | 196 nM | 15 nM | 315 nM |  |
| N#Cc1ccnc(N2CCC3(CCCN(Cc4c[nH]c5ccccc45)C3=O)CC2)c1 [Example 10, 2-(2-((1H-indol-3-yl)methyl)-1-oxo-2,9-diazaspiro[5.5]undecan-9-yl)isonicotinonitrile] | 20 nM | 1720 nM | 116 nM | 1190 nM |  |
| COc1cc(C)nc(N2CCC3(CCCN(Cc4n[nH]c5ccccc45)C3=O)CC2)n1 [Example 112, 2-((1H-indazol-3-yl)methyl)-9-(4-methoxy-6-methylpyrimidin-2-yl)-2,9-diazaspiro[5.5]undecan-1-one] | 6.1 nM | 912 nM | 82 nM | 255 nM |  |
| Cc1cc(C#N)nc(N2CCC3(CCCN(Cc4c[nH]c5ccccc45)C3=O)CC2)n1 [Example 75, 2-(2-((1H-indol-3-yl)methyl)-1-oxo-2,9-diazaspiro[5.5]undecan-9-yl)-6-methylpyrimidine-4-carbonitrile] | 7.2 nM | > 10000 nM | 466 nM | 1480 nM |  |
| Cc1cc(C)nc(N2CCC3(CCCN(Cc4ccccc4-c4ccco4)C3=O)CC2)n1 [Example 15, 9-(4,6-dimethylpyrimidin-2-yl)-2-(2-(furan-2-yl)benzyl)-2,9-diazaspiro[5.5]undecan-1-one] | 13 nM | 2830 nM | 109 nM | 855 nM |  |
| Cc1cncc(N2CCC3(CCCC(=O)N3Cc3c[nH]c4ccccc34)CC2)n1 [Example 7, 1-((1H-indol-3-yl)methyl)-9-(6-methylpyrazin-2-yl)-1,9-diazaspiro[5.5]undecan-2-one] | 86 nM | 7440 nM | 698 nM |  | 14% |
| Cc1cc(C)nc(N2CCC3(CCCN(Cc4n[nH]c5ccccc45)C3=O)CC2)n1 [Example 45, 2-((1H-indazol-3-yl)methyl)-9-(4,6-dimethylpyrimidin-2-yl)-2,9-diazaspiro[5.5]undecan-1-one] | 10 nM | 1060 nM | 64 nM | 521 nM |  |
| Cc1cccc(N2CCC3(CCCN(Cc4c[nH]c5ccccc45)C3=O)CC2)n1 [Example 9, 2-((1H-indol-3-yl)methyl)-9-(6-methylpyridin-2-yl)-2,9-diazaspiro[5.5]undecan-1-one] | 54 nM | 2430 nM | 265 nM | 1560 nM |  |
| N#Cc1ccnc(N2CCC3(CCCN(Cc4cccc(-c5ncccn5)c4)C3=O)CC2)c1 [Example 35, 2-(1-oxo-2-(3-(pyrimidin-2-yl)benzyl)-2,9-diazaspiro[5.5]undecan-9-yl)isonicotinonitrile] | 45 nM | 394 nM | 98 nM | 868 nM |  |
| Cc1cc(C)nc(N2CCC3(CCCN(Cc4cccc5c4OCCO5)C3=O)CC2)n1 [Example 20, 2-((2,3-dihydrobenzo[b][1,4]dioxin-5-yl)methyl)-9-(4,6-dimethylpyrimidin-2-yl)-2,9-diazaspiro[5.5]undecan-1-one] | 42 nM | 8550 nM | 211 nM | 2530 nM |  |
| Cc1cc(C#N)cc(N2CCC3(CCCN(Cc4cccc(-c5ncccn5)c4)C3=O)CC2)n1 [Example 28, 2-methyl-6-(1-oxo-2-(3-(pyrimidin-2-yl)benzyl)-2,9-diazaspiro[5.5]undecan-9-yl)isonicotinonitrile] | 49 nM | 5140 nM | 150 nM | 1110 nM |  |
| Cc1ccnc(N2CCC3(CCCN(Cc4cccc(-c5ncc(C)o5)c4)C3=O)CC2)n1 [Example 38, 2-(3-(5-methyloxazol-2-yl)benzyl)-9-(4-methylpyrimidin-2-yl)-2,9-diazaspiro[5.5]undecan-1-one] | 43 nM | 1190 nM | 177 nM | 924 nM |  |
| Cc1cc(C#N)nc(N2CCC3(CCCN(Cc4cccc(-c5ncccn5)c4)C3=O)CC2)n1 [Example 32, 6-methyl-2-(1-oxo-2-(3-(pyrimidin-2-yl)benzyl)-2,9-diazaspiro[5.5]undecan-9-yl)pyrimidine-4-carbonitrile] | 59 nM | > 10000 nM | 383 nM | 1860 nM |  |
